One molecule from patent US20250345592A1, “BIODEGRADABLE ION PATCH AND METHOD FOR MANUFACTURING THE SAME” (SEOUL NATIONAL UNIVERSITY R&DB FOUNDATION, priority 2023, published 2025) can be followed below.

The format of the data set is in vitro ADME. How it is done: To enhance the absorption efficiency of the drug loaded in the provided gel, the current density applied to the ion patch was adjusted. Specifically, caffeine was added to the gelatin gel laminated on the anode of the ion patch, and various current densities of 50, 100, and 150 μA were applied. The amount of caffeine absorbed into the skin was then measured and compared.

As for `Cn1c(=O)c2c(ncn2C)n(C)c1=O` [caffeine], the “amount of caffeine absorbed into the skin” value was “highest in the order of 150, 50, and 100 μA current densities”.
